Columns and labels:
L1210 [1] = test: Inhibition of [3H]thymidine uptake into L1210 cells at a concentration of 1 uM; assay type: functional; details: Mus musculus
L1210 [2] = test: Reduction of [3H]thymidine uptake into L1210 cells at a concentration of 1 uM; assay type: functional, Mus musculus
L1210 [3] = test: Compound was tested for inhibition of [3H]thymidine uptake into L1210 cells at a concentration of 10 uM; assay type: functional; details: Mus musculus

## COc1ccc(CN(C)c2nc(N(CCO)CCO)nc3c(N(C)Cc4ccc(OC)cc4)nc(N(CCO)CCO)nc23)cc1
L1210 [1]
  inhibition at 1 µM: 75%
L1210 [2]
  Reduction: 47%

## COc1ccc(CNc2nc(N(CCO)CCO)nc3c(NCc4ccc(OC)c(OC)c4)nc(N(CCO)CCO)nc23)cc1OC
L1210 [1]
  inhibition at 1 µM: 71%
L1210 [2]
  Reduction: 26%

## COc1ccc(CNc2nc(NCC(C)O)nc3c(NCc4ccc(OC)cc4)nc(NCC(C)O)nc23)cc1 (stereo not given)
L1210 [1]
  inhibition at 1 µM: 57%
L1210 [2]
  Reduction: 45%

## COc1ccc(CNc2nc(OCCCO)nc3c(NCc4ccc(OC)cc4)nc(OCCCO)nc23)cc1
L1210 [1]
  inhibition at 1 µM: 66%
L1210 [2]
  Reduction: 26%

## COc1ccc(CNc2nc(N(CCO)CCO)nc3c(NCc4ccc(OC)cc4)nc(N(CCO)CCO)nc23)cc1
L1210 [1]
  inhibition at 1 µM: 56%
L1210 [2]
  Reduction: 18%

## COc1ccc(CNc2nc(OCCO)nc3c(NCc4ccc(OC)c(OC)c4)nc(OCCO)nc23)cc1OC
L1210 [1]
  inhibition at 1 µM: 57%
L1210 [2]
  Reduction: 23%

## COc1ccc(CN(C)c2nc(NCC(C)O)nc3c(N(C)Cc4ccc(OC)cc4)nc(NCC(C)O)nc23)cc1 (stereo not given)
L1210 [1]
  inhibition at 1 µM: 39%
L1210 [2]
  Reduction: 86%

## COc1ccc(CN(C)c2nc(NCC(C)O)nc3c(N(C)Cc4ccc(OC)c(OC)c4)nc(NCC(C)O)nc23)cc1OC (stereo not given)
L1210 [1]
  inhibition at 1 µM: 73%
L1210 [2]
  Reduction: 22%

## COc1ccc(CNc2nc(NCC(C)O)nc3c(NCc4ccc(OC)c(OC)c4)nc(NCC(C)O)nc23)cc1OC (stereo not given)
L1210 [1]
  inhibition at 1 µM: 85%
L1210 [2]
  Reduction: 14%

## COc1ccc(CN(C)c2nc(OCCO)nc3c(N(C)Cc4ccc(OC)cc4)nc(OCCO)nc23)cc1
L1210 [1]
  inhibition at 1 µM: 73%
L1210 [2]
  Reduction: 77%

## COc1ccc(CNc2nc(OCCO)nc3c(NCc4ccc(OC)cc4)nc(OCCO)nc23)cc1
L1210 [1]
  inhibition at 1 µM: 40%
L1210 [2]
  Reduction: 30%

## OCCN(CCO)c1nc(NCc2ccccc2)c2nc(N(CCO)CCO)nc(NCc3ccccc3)c2n1
L1210 [1]
  inhibition at 1 µM: 38%
L1210 [2]
  Reduction: 45%

## COc1ccc(CN(C)c2nc(OCCCO)nc3c(N(C)Cc4ccc(OC)cc4)nc(OCCCO)nc23)cc1
L1210 [1]
  inhibition at 1 µM: 69%
L1210 [2]
  Reduction: 53%

## OCC(O)COc1nc(N2CCCCC2)c2nc(OCC(O)CO)nc(N3CCCCC3)c2n1 (stereo not given)
L1210 [3]
  inhibition at 10 µM: 37%
L1210 [2]
  Reduction: 22%

## OCCN(CCO)c1nc(N2CCCCC2)c2nc(N(CCO)CCO)nc(N3CCCCC3)c2n1 [DIPYRIDAMOLE]
L1210 [1]
  inhibition at 1 µM: 89%
L1210 [2]
  Reduction: 96%

Reference: ChEMBL document CHEMBL1133429, “Resistance-modifying agents. Part 7: 2,6-disubstituted-4,8-dibenzylaminopyrimido[5,4-d]pyrimidines that inhibit nucleoside transport in the presence of alpha1-acid glycoprotein (AGP)” (2000)
